Assay results reported in US20100056627A1, “PHARMACEUTICAL COMPOSITIONS OF ALKYL GALLATES” (priority 2006, published 2010).
≈ marks a conversion by molar mass, not a printed value.

Experiments:
[1] = test system: Pseudomonas aeruginosa POA1; assay: Antimicrobial action (MIC) of lauryl gallate with isoamyl gallate or propyl gallate in 3% NaCl; format: cell-based; details: for MIC: Pseudomonas aeruginosa, P. aoruginosa PAO1, MHA (3% NaCl)
influenza virus = assay: Influenza virucidal activity of n-dodecyl gallate with n-hexyl gallate or n-butyl gallate (FIG. 3); format: cell-based
Text: FIG. 3 is a graph showing reinforcement of the influenza virucidal activity of n-dodecyl gallate by n-hexyl gallate and n-butyl gallate. The abscissa axis indicates the concentrations of n-dodecyl gallate.
The open circle in FIG. 3 indicates an influenza virucidal effect of dodecyl gallate alone.

[2] = test system: gram-positive and gram-negative bacteria; assay: MIC (minimum growth inhibition concentration), 2-fold serial agar plate dilution on Mueller Hinton II Agar, with concomitant alkyl gallate and salt; details: n-heptyl, n-hexyl, n-pentyl, n-butyl, isobutyl or n-propyl gallate at a concentration equal to or less than MIC
clinical isolate MRSA = assay: Oxacillin MIC against MRSA with concomitant octyl gallate and short-chain alkyl gallate (β-lactam sensitivity, ILSMR effect); format: cell-based, Staphylococcus aureus; details: Staphylococcus aureus, MRSA, 24 h, Isoamyl G 25 μg/mL; Octyl G 1.5625 μg/mL
MRSA COL strain = assay: Time required for killing bacteria, octyl gallate and propyl gallate (FIG. 1); format: cell-based, Staphylococcus aureus
Text: FIG. 1 is a graph showing shortening of the time required for killing bacteria by the concomitant use of octyl gallate and propyl gallate against MRSA COL strain.

[3] = test system: Candida albicans ATCC 10231; assay: Time required for killing mold, octyl gallate and propyl gallate (FIG. 2); format: cell-based; details: Candida albicans ATCC 10231, FIG. 2
Text: FIG. 2 is a graph showing shortening of the time required for killing mold by the concomitant use of octyl gallate and propyl gallate against Candida albicans ATCC 10231.

herpes virus (HSV-1) = assay: Virucidal activity against HSV-1 (Tables 14, 15, FIG. 5); format: cell-based
influenza virus B/T/1/05 = assay: Time course of virucidal activity at 37° C., infectivity by plaque assay in MDCK cells (FIGS. 6 to 12); format: cell-based; details: influenza B/T/1/05, FIGS. 6 and 8
Experimental: The experiments in FIGS. 7 to 12 were carried out at 37° C. The infectivity of viruses was determined using MDCK cells by the plaque assay method.
This virucidal activity of octyl gallate was reinforced by propyl gallate also against influenza virus A/Aichi (H3N2) in the same manner as above.

[4] = test system: influenza virus A/Aichi (H3N2); assay: Virucidal activity against influenza virus A/Aichi (H3N2) (Table 16); details: Table 16, NaCitrate 0.90%

## CCCCCCCCCCCCOC(=O)c1cc(O)c(O)c(O)c1 [dodecyl gallate, n-dodecyl gallate]
[1]; PAO1, 24 h, concomitant none, 24 h
  MIC: 15.6 mg/L (≈ 46.2 µM)
[1]; PAO1, 48 h, concomitant none, 48 h
  MIC: 31.2 mg/L (≈ 92.3 µM)
[1]; PAO1, 48 h, isoamyl gallate 50 μg/mL, 48 h
  MIC: 3.91 mg/L (≈ 11.5 µM)
[1]; PAO1, 48 h, isoamyl gallate 75 μg/mL, 48 h
  MIC: 0.977 mg/L (≈ 2.89 µM)
[1]; PAO1, 48 h, propyl gallate 75 μg/mL, 48 h
  MIC: 0.488 mg/L (≈ 1.44 µM)
[1]; isoamyl gallate or propyl gallate in the presence of 3% NaCl (Table 6)
  antimicrobial action of lauryl gallate: reinforced
Influenza virus; addition of butyl gallate at a concentration without virucidal effect
  virucidal effect of dodecyl gallate: reinforced markedly
Influenza virus; coexistence of 100 μg/ml of hexyl gallate
  dodecyl gallate concentration at which no survivor was observed: 20 µg/mL
[2]
  change of MIC value by addition of shorter-chain alkyl gallate: decreased

## Cc1onc(-c2ccccc2)c1C(=O)N[C@@H]1C(=O)N2[C@@H]1SC(C)(C)[C@@H]2C(=O)O [oxacillin, reference compound]
Clinical isolate MRSA
  MIC: 0.125 mg/L

## CCCOC(=O)c1cc(O)c(O)c(O)c1 [propyl gallate]
MRSA COL strain
  bactericidal activity alone: low
[3]
  fungicidal activity alone: low
Herpes virus (HSV-1); Table 14, octyl gallate 0, propyl gallate 300 mg/L, J1816 90 mg/L, Na3citrate 0.90%
  No of plaques: 0
Herpes virus (HSV-1); Table 14, propyl gallate 100 mg/L, J1816 30 mg/L, Na3citrate 0.90%
  No of plaques: 0
Herpes virus (HSV-1); Table 14, propyl gallate 200 mg/L, J1816 60 mg/L, Na3citrate 0.90%
  No of plaques: 0
Herpes virus (HSV-1); Table 14, propyl gallate 300 mg/L, J1816 90 mg/L, Na3citrate 0.90%
  No of plaques: 0
Herpes virus (HSV-1); Table 14, propyl gallate 400 mg/L, J1816 120 mg/L, Na3citrate 0.90%
  No of plaques: 0
Herpes virus (HSV-1); Table 14, propyl gallate 500 mg/L, J1816 150 mg/L, Na3citrate 0.90%
  No of plaques: 0
Herpes virus (HSV-1); Table 15, octyl gallate 0, propyl gallate 300 mg/L, J1816 0, NaCitrate 0.90%
  No of plaques: 137
Herpes virus (HSV-1); Table 15, propyl gallate 100 mg/L, J1816 0, NaCitrate 0.90%
  No of plaques: 192
Herpes virus (HSV-1); Table 15, propyl gallate 200 mg/L, J1816 0, NaCitrate 0.90%
  No of plaques: 139
Herpes virus (HSV-1); Table 15, propyl gallate 300 mg/L, J1816 0, NaCitrate 0.90%
  No of plaques: 162
Herpes virus (HSV-1); Table 15, propyl gallate 400 mg/L, J1816 0, NaCitrate 0.90%
  No of plaques: 102
Herpes virus (HSV-1); Table 15, propyl gallate 500 mg/L, J1816 0, NaCitrate 0.90%
  No of plaques: 130
Influenza virus B/T/1/05
  virucidal activity alone: low
[4]; octyl gallate 0, propyl gallate 300 mg/L, J1816 90 mg/L
  No of plaques: 52
[4]; propyl gallate 100 mg/L, J1816 30 mg/L
  No of plaques: 84
[4]; propyl gallate 200 mg/L, J1816 60 mg/L
  No of plaques: 87
[4]; propyl gallate 300 mg/L, J1816 90 mg/L
  No of plaques: 53
[4]; propyl gallate 400 mg/L, J1816 120 mg/L
  No of plaques: 47
[4]; propyl gallate 500 mg/L, J1816 150 mg/L
  No of plaques: 42

## CCCCCCCCCCOC(=O)c1cc(O)c(O)c(O)c1 [n-decyl gallate]
[2]
  change of MIC value by addition of shorter-chain alkyl gallate: decreased

## CCCCCCCCCCCOC(=O)c1cc(O)c(O)c(O)c1 [n-undecyl gallate]
[2]
  change of MIC value by addition of shorter-chain alkyl gallate: decreased

## CCCCCCCCCOC(=O)c1cc(O)c(O)c(O)c1 [n-nonyl gallate]
[2]
  change of MIC value by addition of shorter-chain alkyl gallate: decreased
